Results from patent US20200352918A1, “COMPOUNDS AND METHODS FOR TREATING OR PREVENTING FIBROSIS” (priority 2019, published 2020).
Structures can show the parent of a compound that is named as a salt.

Tests used:
[1] = system: iFA phenotype of mesenchymal-like cells on 13 kPa hydrogels; test: iFA-prevention phenotypic high-content drug screen (iFA model); type: cell-based, human; conditions: for Efficacy in secondary screen: assay repeated with compound sourced commercially or from additional library materials; for Dose response: 20 point dose course, picomolar to millimolar; for Prevention/rescue of the iFA phenotype: 3.75 μgm/ml IFNγ (FIG. 25C)
Protocol: Mesenchymal-like cells were cultured on 13 kPa functionalized polyacrylamide gels that were prepared as follows. 187.5 μl of 40% acrylamide, 60 μl of 2% bis-acrylamide and 8.55 μl of sodium bisulfate in a final volume of 990 μl of water was incubated for 20 min at room temperature to degas the mixture. To this mixture, 0.10% ammonium persulfate and 0.15% TEMED were added, mixed and 100 μl of the solution was added onto a 0.4% 3-(Trimethoxysily) propyl methacrylate pH 3.5 treated coverslip. A 2% dimethyl dichlorosilane in chloroform treated round glass coverslip was then inverted on the acrylamide solution and allowed to polymerize for 15 min between the two surfaces. The top coverslip was gently removed, and the bottom coverslips with the hydrogel were transferred to appropriate multi-well low adherent tissue culture plate containing coupling buffer (0.1 M sodium phosphate dibasic, 0.1 M sodium phosphate monobasic) pH 8. To functionalize the hydrogel, 1 part of 0.1 M p-benzoquinone in dioxane was added to the hydrogels containing 4 parts of coupling buffer and incubated at 37° C. for 30 min. The gel was then successively washed with 20% dioxane in water, water, 0.1 M sodium acetate buffer at pH 4.0 containing 1.0 M sodium chloride, 0.1 M sodium bicarbonate solution at pH 8.5 containing 1.0 M sodium chloride, and finally with coupling buffer at pH 7.5. The hydrogels were then coated with 0.1% gelatin for 2 hrs prior to seeding the cells. Cells were seeded at a density of 3000 cells/cm^2.
A phenotypic high-content drug screen was prepared to identify compounds capable of preventing the iFA phenotype in a 96-well format. An ImageXpress XL high-throughput imager with a 4× Plan objective (N/A 0.20) was used with image based focusing. Briefly, 100 μL media were plated in each well of 96 well plate using a Thermo Multidrop non-contact dispenser. Using a custom V&P pin tool mounted to a Beckman FX liquid handler, 1.5 μL compounds or DMSO were added. Mesenchymal-like cells were added as a suspension using the Multidrop at a density of 3.5×10^3 cells/well. The resulting compound concentration was 10 μM. Cells were imaged after 7 days of incubation at 37° C. and 5% CO2: A final of 0.5 μg/ml of Calcein AM and/or 10 μg/ml propidium iodide (viability dye) with 1 μg/ml Hoechst 33342 were added and imaged using the ImageXpress XL system. Data mining was performed using a custom module consisting of the following steps: The image background was removed using a top-hat filter with 25 μm round shape polisher. Next, cellular aggregates and individual spindle-shaped cells were identified. Aggregates of cells were defined by size with a cut-off of 60 to 200 micron and an intensity of at least 200 gray scales over background. Individual spindle-shaped cells were identified as smaller objects with cut-offs from 15 to 100 micron and a lower intensity of at least 70 gray scales over background.
Additional morphometric measurements were made by counting labeled cell nuclei and measuring total area covered with cells per well. The data resulting from the screen were batch exported through MetaXpress and uploaded into a Collaborative Drug Discovery (CDD) cloud based database (Ekins and Bunin, 2013, Methods in molecular biology 993, 139-154.). Hits were selected on a cut-off of more than 3 standard deviations from mean using data normalized to reference wells in each plate. IC50 values (the half maximal inhibitory concentration) from confirmation experiments were calculated from dose-response signal curves using the Prism software (GraphPad Software).
Signal-to-background (S/B) ratio, standard variation and variation coefficients were calculated as the signal of DMSO treated wells divided by the signal of the hit compound (AA5) treated wells. […]

iFA model = test: Fibrotic marker, cytokine and repair modulator expression in the iFA model (qPCR, immunoblotting, luminex, immunofluorescence); type: cell-based, human; conditions: 3.75 μgm/ml IFNγ vs DMSO-treated controls
Protocol: The Milliplex human cytokine/chemokine Panel IV, human TIMP Panel 2, and human TGFβ 1,2,3 magnetic bead kits (EMD Millipore) were used per manufacturer's instructions. Prior to plating, all samples tested for human TGFβ only were activated and neutralized with 1.0 N HCl and 1.0 N NaOH, respectively. Briefly, 25 μl of undiluted or treated cell culture supernatant samples were mixed with 25 μl of magnetic beads and allowed to incubate overnight at 4° C. while shaking. After washing the plates with wash buffer in a Biotek ELx405 washer, 25 μl of biotinylated detection antibody was added and incubated for 1 hour at room temperature while shaking. 25 μl of streptavidin-phycoerythrin conjugate was then added to the reaction mixture and incubated for another 30 minutes at room temperature while shaking. Following additional washes, beads were resuspended in sheath fluid, and fluorescence was quantified using a Luminex 200 instrument. Similarly, a custom magnetic Luminex assay kit of select analytes (R&D Systems) was used per manufacturer's instructions. Cell culture supernatants were prepared with a 2-fold dilution. 50 μl of diluted sample were added to 50 μl of provided micro-particle cocktail and incubated for 2 hours at room temperature while shaking. After washing with wash buffer, 50 μl of biotin antibody cocktail was added and incubated for 1 hour at room temperature while shaking. Following additional washes, 50 μl of diluted Streptavidin-PE was then added for incubation for 30 minutes at room temperature while shaking. The plate was then washed again and the micro-particles resuspended in 100 μl wash buffer. After an additional 2-minute incubation while shaking, the data was acquired using a Luminex 200 instrument.
In-vitro cultures of PF and cells in the iFA model were washed once with PBS and total RNA from the samples were extracted using the RNeasy Mini Kit (Qiagen) according to the manufacturer's instructions. For the lung slice cultures (LSC), tissues were snap-frozen after treatment and stored at −80° C. until RNA isolation. Lung slices were homogenized using a handheld homogenizer and passing the homogenate through a Qiashredder (Qiagen). Total RNA from the LSC and cells from the disease model were extracted using the RNeasy Mini Kit (Qiagen) according to the manufacturer's instructions. The RNA concentrations were measured on a NanoDrop ND-1000 spectrophotometer. Single-stranded cDNA was synthesized from 200 ng of total RNA using Superscript IV and random hexamer primers (Invitrogen) in a volume of 20 μl. cDNA was then used for qRT-PCR analysis. PCR reactions were performed using Taqman Gene Expression Assay mix (Applied Biosystems) according to the manufacturer's instructions.
qRT-PCR reactions were performed using the StepOnePlus (Applied Biosystems). Relative gene expression was calculated using the 2^−ΔΔCt method, with 18S Cat. #4331182 (Invitrogen) as housekeeping gene. For the RT^2qPCR arrays, cDNA from DMSO and AA5 treated iFA and was added to the RT^2 qPCR iTaq Universal SYBR green Master Mix (Biorad). 20 μl of the experimental cocktail was added to each well of the Fibrosis PCR (Qiagen). Real-Time PCR was performed on the StepOnePlus qPCR system (Applied Biosystems) using SYBR green detection according to the manufacturer's recommendations. All data from the PCR was collected and analyzed by SA Bioscience's PCR Array Data Analysis Web Portal.
Cells grown on coverslips were fixed in 4% paraformaldehyde (PFA) for 10 min at room temperature and washed three times with TBS buffer supplemented with 0.1% Tween 20 (TBST). Lung samples were fixed overnight in 4% PFA at room temperature, washed 3 times in PBS, dehydrated and then infiltrated and embedded with wax. Five-micron sections were collected on glass slides, deparaffinized and rehydrated. Heat-induced epitope retrieval was performed using 1 mM EDTA in a microwave. […]

[2] = library compound plated with cells on day 1 on hydrogel, phenotype on day 7, 10 μM

Row | Molecule | Efficacy in secondary screen [1] | Efficacy in primary screen [1, 2] | also measured
1 | CN1CCC2(C)c3cc(O)ccc3N(C)C12.O=C(O)/C=C/C(=O)O (single isomer, unassigned; (-)) [(−)Eseroline fumarate salt., (−)Eseroline fumarate salt] | ++ (++ = moderate effect) | +++ (+++ = strong effect) | 
2 | S=C(Nc1ccccc1)Nc1nccs1 [1-Pheny1-3-(2-thiazolyl)-2-thiourea] | + | +++ (+++ = strong effect) | 
3 | Cc1cc(C2CCCCC2)n(O)c(=O)c1.NCCO [Ciclopirox ethanolamine., Ciclopirox ethanolamine] | ++ (++ = moderate effect) | +++ (+++ = strong effect) | 
4 | CN1CCN(c2cccc(Nc3nc4c(-c5ccc(S(C)(=O)=O)cc5)cccn4n3)c2)CC1 [CEP-33779 JAK2 Inhibitor] | ++ (++ = moderate effect) | +++ (+++ = strong effect) | 
5 | COC(=O)Nc1nc2ccc(Sc3ccccc3)cc2[nH]1 [Fenbendazole., Fenbendazole] | ++ (++ = moderate effect) | +++ (+++ = strong effect) | 
6 | O=P1(N(CCCl)CCCl)NCCCO1 (stereo not drawn) [Cyclophosphamide] | + | +++ (+++ = strong effect) | 
7 | C[C@@H](N)[C@H]1CC[C@H](C(=O)Nc2ccncc2)CC1 [Y-27632 Rock Inhibitor] | ++ (++ = moderate effect) | +++ (+++ = strong effect) | 
8 | CN(C)c1ccc(C(=C2C=CC(=[N+](C)C)C=C2)c2ccc(N(C)C)cc2)cc1.[Cl-] | ++ (++ = moderate effect) | +++ (+++ = strong effect) | 
9 | CSCC[C@@H](N)C(=O)O [D-methionine] | ++ (++ = moderate effect) |  | Efficacy in primary screen ([1]; 168 h, 10 µM): +++ (+++ = strong effect)
10 | CC(C)(CO)Cc1cc(C(C)(C)C)c(O)c(C(C)(C)C)c1 [CGP-7930] | + | +++ (+++ = strong effect) | 
11 | NC(CP(=O)(O)O)C(=O)O (racemic) [±)-2-Amino-3-phosphonopropionic acid] | + | +++ (+++ = strong effect) | 
12 | N#CC(C#N)=C(N)/C(C#N)=C/c1cc(O)c(O)c(O)c1 [Tyrphostin 51] | + | +++ (+++ = strong effect) | 
13 | COc1ccc2c(c1)c(CC(=O)O)c(C)n2Cc1ccc(Cl)cc1 [1-(4-Chlorobenzyl)-5-methoxy-2-methylindole-3-acetic acid] | + | +++ (+++ = strong effect) | 
14 | CCCCC/C=C\C/C=C\C/C=C\C/C=C\CCCC(=O)NCc1ccc(O)c(OC)c1 [Arvanil] | + | +++ (+++ = strong effect) | 
15 | NCCCC(=O)O [γ-Aminobutyric acid] | + | +++ (+++ = strong effect) | 
16 | COC(=O)/C=C/c1cc(O)ccc1O | ++ (++ = moderate effect) | +++ (+++ = strong effect) | Dose response [1]: ++ (++ = moderate effect)
17 | CC(C)(C=O)Cc1cc(C(C)(C)C)c(O)c(C(C)(C)C)c1 [CGP-13501] | + | +++ (+++ = strong effect) | 
18 | CC(NC(C)(C)C)C(=O)c1cccc(Cl)c1 (stereo not drawn) [Bupropion hydrochloride] | + | +++ (+++ = strong effect) | 
19 | CCCNC(=O)NS(=O)(=O)c1ccc(Cl)cc1 [Chlorpropamide] | + | +++ (+++ = strong effect) | 
20 | Recombinant Human IFN-gamma Protein: Recombinant Human IFN-gamma Protein; IFNs are known anti-fibrotic cytokines (protein, UniProt P01579 24-161, looked up) Interferon gamma: QDPYVKEAENLKKYFNAGHSDVADNGTLFLGILKNWKEESDRKIMQSQIVSFYFKLFKNFKDDQSIQKSVETIKEDMNVKFFNSNKKKRDDFEKLTNYSVTDLNVQRKAIHELIQVMAELSPAAKTGKRKRSQMLFRG | ++ (++ = moderate effect) | +++ (+++ = strong effect) | α-SMA and Collagen I (IF) (iFA model): reduced; Prevention/rescue of the iFA phenotype [1]: Partial prevention of the iFA phenotype; Prevention/rescue of the iFA phenotype ([1]; listed as recombinant IFNγ): partially rescued the iFA phenotype; Dose response [1]: +
